Test results: paper PMC5872125, “Fragment-Based Discovery of Inhibitors of the Bacterial DnaG-SSB Interaction” (Antibiotics, 2018)
Several values for one entry are separate records, joined by “and”; a condition that tells them apart may be missing. Equal values may be shown once.

Columns and labels:
[1] = target: T1, DnaGC (C-terminal helicase-binding domain of DnaG primase) (Escherichia coli, UniProt P0ABS5); experiment: 15N–1H HSQC NMR titration (binding affinity); settings: 15N–1H HSQC titration, change in chemical shift with incremental additions of ligand; roughly estimated
T1 construct: made in house
Protocol: The final volume of each sample was 150 μL. The recording time was 30 min for each ^15N–^1H HSQC experiment. A standard pulse sequence was used for data acquisition. Spectra were recorded at 298 K with a Bruker Avance 600 MHz NMR spectrometer equipped with cryoprobe and auto-sample changer. […] The spectra were processed with TOPSPIN 3.1 and analyzed using CCPN [43]. Weighted CSP values were calculated as
Binding affinities were estimated by incremental titration of fragments into protein, with recording of a ^15N–^1H HSQC experiment at each concentration point. Compound solubilities were tested to determine the highest concentrations of ligands used in assays. Equilibrium dissociation constants from NMR titration data were derived using the “single site-specific binding with ligand depletion” model in GraphPad Prism v.6.0 (La Jolla, CA, USA).

DnaGC = target: T2, DnaGC (Escherichia coli, UniProt P0ABS5); experiment: 1D 19F-NMR binding; settings: compound 1 mM, 50 μM DnaGC (20-fold excess)
T2 construct: made in house
Excerpt: The observed NMR peak shifts were consistent with the docked orientation. The negatively charged tetrazole is predicted to form favorable electrostatic and hydrogen bond interactions with the side chains of K447 and R452. The methyl groups of L446, M451, L455, L484 T515 and L519 form a hydrophobic pocket accommodating two aromatic rings of the compound. One of the fluorine atoms is about 3 Å from the amide group of G481 while the second at the para-position of the phenoxy group points out of the pocket toward K518. In the docked conformation, these fluorine atoms are involved in hydrogen bond formation with these two residues (Figure 4). To test the docked orientation of 5, 1D ^19F-NMR was carried out using a 20-fold excess of compound over protein.
(§1) 1D ^19F-NMR spectra were recorded on a Bruker Avance III 400 MHz NMR spectrometer (Bruker, Karlsruhe, Germany) equipped with the two-channel BBO probe with z-gradient at 300 K. All ^19F-NMR spectra were recorded with 256 scans for fragment and complex samples sequentially. Fragments dissolved in ^2H6-DMSO were diluted in HSQC buffer to give final fragment and protein concentrations of 1 mM and 50 μM, respectively.

E. coli χ = E. coli χ (Escherichia coli, UniProt P28905); experiment: 1D 19F-NMR binding; settings: in the presence of E. coli χ
Protocol: The fragments identified here and the first generation of optimized leads for DnaGC were tested against other SSB-Ct binding partners including E. coli PriA, E. coli RNAse HI, and the χ subunit of E. coli and Acinetobacter baumannii DNA polymerase III. STD-NMR was used to assess binding.
as §1

T1 sequence (P0ABS5 434-581): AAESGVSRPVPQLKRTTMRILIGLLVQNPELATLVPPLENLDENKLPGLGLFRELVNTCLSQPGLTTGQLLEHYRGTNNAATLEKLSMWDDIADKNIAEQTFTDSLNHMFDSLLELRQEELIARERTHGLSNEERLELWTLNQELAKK
E. coli χ, sequence (P28905 whole entry, the tested form may be a part): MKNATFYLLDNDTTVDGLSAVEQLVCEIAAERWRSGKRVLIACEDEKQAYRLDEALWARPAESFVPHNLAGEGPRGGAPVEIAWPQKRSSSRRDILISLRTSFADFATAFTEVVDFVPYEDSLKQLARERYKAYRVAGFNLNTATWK
T2 sequence (P0ABS5 434-581): as the sequence (P0ABS5 434-581) above

| Compound | Kd [1] | binding by 1D 19F-NMR (DnaGC) | binding by 1D 19F-NMR (E. coli χ) |
| --- | --- | --- | --- |
| c1ccc(Oc2cccc(-c3nn[nH]n3)c2)cc1 [Compound 6] | 1200 µM and ~1200 µM | – | – |
| Fc1ccc(Oc2cccc(F)c2-c2nnn[nH]2)cc1 [Compound 5, 5-[2-fluoro-6-(4-fluorphenoxy)phenyl]tetrazol-1-ide] | 1300 µM and ~1300 µM | confirming binding | – |
| O=C(O)CSc1c[nH]c2ccccc12 [Fragment 2] | ~3100 µM | – | – |
| O=C(O)CCSc1ccccc1 [Fragment 3] | ~2800 µM | – | – |
| Fc1ccc(-c2nnn[nH]2)cc1 [Fragment 4] | ~3200 µM | – | demonstrated binding |
| O=C(O)CN1C(=O)c2cccc3cccc1c23 [Fragment 1] | ~1100 µM | – | – |
